Laboratory results taken from patent US20230339991A1, “HYPOXIA-ACTIVATED DNA ALKYLATING AGENT AND MEDICAL USE THEREOF” (ASCENTAWITS PHARMACEUTICALS, LTD., priority 2020, published 2023).
Where “and” joins values, the source holds several entries; their conditions need not be identical. Equal values may be shown once. Values belong to the molecule of their own block, whether it stands above or below them.

Columns and labels:
[1] = system: HuPrime pancreatic cancer PA3546 subcutaneous xenograft PDX tumor; test: PA3546 human pancreatic cancer subcutaneous PDX model; details: 120 mg/kg i.p. QW×3; Day 25
[2] = molecular target: P-gp (Homo sapiens, UniProt P08183); test: P-gp substrate evaluation, MDCKII-MDR1 penetration test; details: dog; for Papp A→B at 2 h / Papp B→A at 2 h: MDCK-MDR1
Chain of P-gp (P08183 whole entry): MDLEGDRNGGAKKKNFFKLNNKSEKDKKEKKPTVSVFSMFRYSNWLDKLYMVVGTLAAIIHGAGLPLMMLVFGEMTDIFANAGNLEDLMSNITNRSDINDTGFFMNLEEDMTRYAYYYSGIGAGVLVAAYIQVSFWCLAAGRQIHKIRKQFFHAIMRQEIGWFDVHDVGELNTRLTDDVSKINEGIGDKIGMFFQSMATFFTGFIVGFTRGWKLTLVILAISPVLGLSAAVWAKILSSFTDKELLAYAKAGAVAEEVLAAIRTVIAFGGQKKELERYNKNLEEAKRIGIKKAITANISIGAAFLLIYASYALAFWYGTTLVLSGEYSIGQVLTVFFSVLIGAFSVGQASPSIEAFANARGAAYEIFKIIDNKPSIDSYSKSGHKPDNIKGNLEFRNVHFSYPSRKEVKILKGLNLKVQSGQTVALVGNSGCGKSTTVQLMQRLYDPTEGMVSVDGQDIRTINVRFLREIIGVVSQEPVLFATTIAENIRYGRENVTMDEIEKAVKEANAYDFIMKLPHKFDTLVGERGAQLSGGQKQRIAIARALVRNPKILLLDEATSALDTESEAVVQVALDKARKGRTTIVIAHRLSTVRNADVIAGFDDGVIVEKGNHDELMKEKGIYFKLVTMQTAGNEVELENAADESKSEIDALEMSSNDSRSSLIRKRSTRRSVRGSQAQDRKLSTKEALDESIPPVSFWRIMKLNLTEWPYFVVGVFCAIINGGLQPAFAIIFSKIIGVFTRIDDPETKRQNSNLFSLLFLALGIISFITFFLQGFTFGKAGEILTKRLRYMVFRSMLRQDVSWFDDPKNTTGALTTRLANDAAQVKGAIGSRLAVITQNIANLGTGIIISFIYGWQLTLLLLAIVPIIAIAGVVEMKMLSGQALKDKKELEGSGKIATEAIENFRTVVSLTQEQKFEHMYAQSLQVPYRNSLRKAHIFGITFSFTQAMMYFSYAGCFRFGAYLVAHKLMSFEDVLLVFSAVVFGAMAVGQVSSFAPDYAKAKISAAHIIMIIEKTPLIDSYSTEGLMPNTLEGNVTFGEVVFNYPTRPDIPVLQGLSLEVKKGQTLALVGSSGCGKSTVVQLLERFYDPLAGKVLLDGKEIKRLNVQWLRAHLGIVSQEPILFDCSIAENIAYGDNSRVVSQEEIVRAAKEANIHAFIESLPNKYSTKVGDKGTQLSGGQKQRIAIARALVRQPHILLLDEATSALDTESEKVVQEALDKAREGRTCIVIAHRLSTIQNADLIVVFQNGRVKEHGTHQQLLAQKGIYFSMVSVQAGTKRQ
Procedure: (1) MDCKII-MDR1 cells were cultured in the cell culture bottle. The conditions of the incubator were 37° C., 5% of CO2, and 95% of the relative humidity. When the cell growth confluence was up to 70-90%, the cells were inoculated to the transwell.
The cell suspension was transferred to the upper compartment of the 96-well transwell, wherein each upper compartment contains 50 μL of the cell suspension. The final inoculum density was 5.45×10^5 cells/cm^2.
(1) The transwell culture plate of the MDCKII-MDRT cells was taken out from the incubator. The cell monolayer membrane was rinsed two times with the buffer solution and incubated at 37° C. for 30 min.
(2) The transport rate that the compound was transported from the top-end to the base-end was tested. 75 μL of the buffer solution contained the sample was added to each upper compartment (top-end), and 235 μL of the buffer solution was added to each lower compartment (base-end).
(3) The transport rate that the compound was transported from the base-end to the top-end was tested. 75 μL of the buffer solution was added to each upper compartment (top-end), and 235 μL of the buffer solution contained the sample was added to each lower compartment (base-end).
(6) The upper and lower transits were merged up and then incubated at 37° C. for 2 h.
(7) After the incubation was finished, 50 μL of the samples from each well of the upper compartment and the lower compartment of the transwell culture plate were respectively added to new sample tubes. 200 μL of the acetonitrile containing the internal standard (100 nM Alprazolam, 200 nM Labetalol, 200 nM caffeine and 2 μM Ketoprofen) was added to each sample tube. After the sample tubes were vortexed for 10 min, they were centrifuged at 3220 g for 30 min. 100 μL of the supernatant was taken and diluted with the same volume of the water to perform the LC-MS/MS analysis. Each sample was adopted to the three parallel incubation.
The peak area was calculated by the result of the ion chromatography. The permeability coefficient (Papp, unit: cm/s×10^−6) of the compound was calculated by the formula: […]
In the formula, “VA” refers to the volume of the solution on the acceptor (Ap→Bl was 0.235 mL, and Bl→Ap was 0.075 mL), “Area” refers to the area of the permeable membrane of the 96-well transwell (0.143 cm^2), “time” refers to the incubation time (in second), “[drug]acceptor” refers to the drug concentration of the acceptor after the incubation, and “[drug]initial, donor” refers to the initial concentration of the drug administration before the incubation.
The efflux ratio was calculated by the following formula: […]
In the formula, “Papp (B-A)” refers to the permeability coefficient from the base-end to the top-end, and the term “Papp (A-B)” refers to the permeability coefficient from the top-end to the base-end.
The recovery was calculated by the following formula: […]
In the formula, “VA” refers to the volume of the solution on the acceptor (mL), “VD” refers to the volume of the solution on the donor (mL), “[drug]acceptor” refers to the drug concentration of the acceptor after the incubation, “[drug]donor” refers to the drug concentration of the donor after the incubation, and the term “[drug]initial, donor” refers to the initial concentration of the drug administration before the incubation.

[3] = system: human lung cancer NCI-H460 subcutaneous xenograft; test: Human lung cancer NCI-H460 subcutaneous xenograft model, compounds B and C; assay type: in vivo, BALB/c nude mice
Procedure: BALB/c nude mice were subcutaneously inoculated with human lung cancer NCI-H460 cells to establish human lung cancer subcutaneous transplantation tumor model. […] The positive drug Irinotecan 40 mg/kg group was administered by intraperitoneal injection once every 4 days for 7 times, and observed for 4 days.

[4] = Plasma stability, rat; details: Rat plasma; after 30 minutes
Procedure: (§1) The frozen plasma was immediately melted in a water bath of 37° C. The plasma was centrifuged at 3, 220 g for 10 minutes to remove the blood clots and the supernatant was collected into a new test tube. The pH of the plasma was checked and recorded. Note: a. Only plasma that has been melted no more than twice since arrival was used; b. Only plasma in the range of pH 7 to pH 8 was used.
(§2) 1 mM of working solutions of the test compound and the control compound mevinolin were prepared in DMSO. 1 mM of the working solution of the control compound solution in […] was prepared in acetonitrile. 4 μL of the working solution was added to 796 μL of pre-incubated plasma to achieve 5 μM of final concentration. The final concentration of solvent was 0.5%.
[…] The assay is performed in duplicate. At the end of the two hour incubation, 300 μL of quenched solution at room temperature (acetonitrile containing internal standards (acetonitrile, 100 nM Alprazolam, 500 nM Labetalol and 2 μM ketoprofen)) was added to terminate the reaction. Samples at time 0 were prepared by adding 50 μL of standard addition plasma to the new test tubes with 300 μL of quenched solution at room temperature. The test tubes were mixed by vortex for 5 minutes. The samples in the plates were centrifuged at 3, 220×g for 30 minutes at 4° C. to precipitate the proteins. 100 μL of supernatant was transferred to a new plate. The supernatant was diluted with 100 μL of water, mixed well and analysed using LC-MS/MS.

[5] = Plasma stability, dog; details: Dog plasma; after 30 minutes
Procedure: as §1, §2
The aliquots of 50 μL of the standard addition plasma were added to new test tubes and incubated in the water bath of 37° C. at approximately 60 rpm for 2 hours. The assay is performed in duplicate. At the end of the two hour incubation, 300 μL of quenched solution at room temperature (acetonitrile containing internal standards (acetonitrile, 100 nM Alprazolam, 500 nM Labetalol and 2 μM ketoprofen)) was added to terminate the reaction. Samples at time 0 were prepared by adding 50 μL of standard addition plasma to the new test tubes with 300 μL of quenched solution at room temperature. The test tubes were mixed by vortex for 5 minutes. The samples in the plates were centrifuged at 3, 220×g for 30 minutes at 4° C. to precipitate the proteins. 100 μL of supernatant was transferred to a new plate. The supernatant was diluted with 100 μL of water, mixed well and analysed using LC-MS/MS.

[6] = system: human lung cancer NCI-H460-Luc2 intracranial transplantation tumor; details: 20 mg/kg i.p. QW×3; 11 days after grouping
Procedure: BALB/c nude mice were inoculated intracranially with human lung cancer NCI-H460-Luc2 cells to establish human lung cancer intracranial transplantation tumor model. […] The relative tumor inhibition rate TGI (%) was calculated based on tumor biofluorescence value and the efficacy was evaluated.

[7] = Plasma stability, human; assay type: in vitro ADME; details: Human plasma; after 30 minutes; 5 μM; 37° C.
Procedure: (§3) The pH of the plasma was checked and recorded. Note: a.
(§4) The final concentration of solvent was 0.5%.
(§5) The assay is performed in duplicate.

[8] = Plasma stability, mouse; assay type: in vitro ADME; details: Mouse plasma; after 30 minutes
Procedure: as §3, §4, §5

[9] = Plasma stability, monkey; assay type: in vitro ADME; details: Monkey plasma; after 30 minutes
Procedure: as §3, §4, §5

[10] = system: human liver cancer HepG2 subcutaneous xenograft; test: Human liver cancer HepG2 subcutaneous xenograft model; assay type: in vivo, BALB/c nude mice
Source text: BALB/c nude mice were subcutaneously inoculated with human liver cancer HepG2 cells to establish human liver cancer subcutaneous transplantation tumor model.

[11] = system: mice; details: prior literature WO2016210175A1, CN108024974A; cited from earlier work
[12] = MDCK-MDR1, Recovery (%) AP-BL, verapamil 0 μM
[13] = MDCK-MDR1, Recovery (%) BL-AP, verapamil 0 μM
[14] = MDCK-MDR1, with verapamil 100 μM (in donor and acceptor buffer), Recovery (%) AP-BL, verapamil 100 μM
[15] = MDCK-MDR1, with verapamil 100 μM (in donor and acceptor buffer), Recovery (%) BL-AP, verapamil 100 μM

Structure (SMILES): Nc1ccn([C@@H]2O[C@H](CO)[C@@H](O)C2(F)F)c(=O)n1 [Gemcitabine, reference compound]
relative tumor inhibition rate TGI (%) [1]: 45.31%

Papp A→B at 2 h [2]: 1.89 ×10⁻⁶ cm/s
Papp B→A at 2 h [2]: 30.5 ×10⁻⁶ cm/s
recovery at 2 h [2, 12]: 79%
recovery at 2 h [2, 13]: 63.4%
recovery at 2 h [2, 14]: 83%
recovery at 2 h [2, 15]: 87.6%
Structure (SMILES): Cc1ccc(NC(=O)c2ccc(CN3CCN(C)CC3)cc2)cc1Nc1nccc(-c2cccnc2)n1 [Imatinib]

Structure (SMILES): CCc1c2c(nc3ccc(OC(=O)N4CCC(N5CCCCC5)CC4)cc13)-c1cc3c(c(=O)n1C2)COC(=O)[C@]3(O)CC [Irinotecan, reference compound]
relative tumor inhibition rate TGI (%) ([3]; 40 mg/kg, Q4D×7, i.p., day 28): 79.03%
drug toxicity (weight loss / death) ([3]; at the tested dosage): a certain drug toxicity

Structure (SMILES): CC[C@H](C)C(=O)O[C@H]1C[C@@H](C)C=C2C=C[C@H](C)[C@H](CC[C@@H]3C[C@@H](O)CC(=O)O3)[C@H]21 [Lovastatin, reference compound]
Remaining percentage [4]: 0.21% and 0.19%
Remaining percentage [5]: 58.73%

Papp A→B at 2 h [2]: 27.6 ×10⁻⁶ cm/s
Papp B→A at 2 h [2]: 26.5 ×10⁻⁶ cm/s
recovery at 2 h [2, 12]: 96.2%
recovery at 2 h [2, 13]: 98.5%
Structure (SMILES): COCCc1ccc(OCC(O)CNC(C)C)cc1 (centres unmarked) [Metoprolol]

Structure (SMILES): CC(=O)O[C@H]1C(=O)[C@@]2(C)[C@H]([C@H](OC(=O)c3ccccc3)[C@]3(O)C[C@H](OC(=O)[C@H](O)[C@@H](NC(=O)c4ccccc4)c4ccccc4)C(C)=C1C3(C)C)[C@]1(OC(C)=O)CO[C@@H]1C[C@@H]2O [Paclitaxel, reference compound]
mean biofluorescence value [6]: 4184.52 E+05 photon/second

Structure (SMILES): CC(C)[N+](C)(CCOC(=O)C1c2ccccc2Oc2ccccc21)C(C)C [Propanthine, reference compound]
Remaining percentage [7]: 0.07% and 3.32%
Remaining percentage [8]: 1.98%
Remaining percentage [9]: 54.38%

Structure (SMILES): CNC(=O)c1cc(Oc2ccc(NC(=O)Nc3ccc(Cl)c(C(F)(F)F)c3)cc2)ccn1 [Sorafenib, reference compound]
cure rate ([10]; 30 mg/kg (Group 2)): 20%
relative tumor inhibition rate TGI (%) ([10]; 30 mg/kg, QD×21 Days, intragastric, Day 45): 48.11%

Structure (SMILES): C[C@@H](OP(=O)(N1CC1)N1CC1)c1ccc([N+](=O)[O-])cc1 [TH2565]
MTD Result [11]: 2 mg/kg

Structure (SMILES): C[C@H](OP(=O)(N1CC1)N1CC1)c1ccc([N+](=O)[O-])cc1 [TH2566]
MTD Result [11]: 2 mg/kg

Papp A→B at 2 h [2]: 11 ×10⁻⁶ cm/s
Papp B→A at 2 h [2]: 31.8 ×10⁻⁶ cm/s
recovery at 2 h [2, 12]: 90.7%
recovery at 2 h [2, 13]: 78.5%
recovery at 2 h [2, 14]: 94.2%
recovery at 2 h [2, 15]: 88.5%
Structure (SMILES): COc1cc2nc(N3CCN(C(=O)c4ccco4)CC3)nc(N)c2cc1OC [prazosin]
